Assay results from patent US20100113517A1, “METHOD FOR THE TREATMENT OF FABRY DISEASE USING PHARMACOLOGICAL CHAPERONES” (AMICUS THERAPEUTICS, INC., priority 2007, published 2010).
Counter-ions that a name gives are not always drawn.

Legend:
[1] = target: T1, human mutant α-Gal A (R301Q) (Homo sapiens, UniProt P06280, R301Q); test: α-Gal A (GLA) enzyme activity in tissue lysates of R301Q Tg/KO mice; assay type: in vivo; conditions: 4 weeks
T1 construct: Tissue lysates were prepared by homogenizing about 50 mg tissue in assay buffer; from tissue; host or cells: heart, kidney, skin, liver and spleen of R301Q Tg/KO mice (human transgene, mouse α-Gal A knocked out)
T1 sequence (P06280 32-429 R301Q): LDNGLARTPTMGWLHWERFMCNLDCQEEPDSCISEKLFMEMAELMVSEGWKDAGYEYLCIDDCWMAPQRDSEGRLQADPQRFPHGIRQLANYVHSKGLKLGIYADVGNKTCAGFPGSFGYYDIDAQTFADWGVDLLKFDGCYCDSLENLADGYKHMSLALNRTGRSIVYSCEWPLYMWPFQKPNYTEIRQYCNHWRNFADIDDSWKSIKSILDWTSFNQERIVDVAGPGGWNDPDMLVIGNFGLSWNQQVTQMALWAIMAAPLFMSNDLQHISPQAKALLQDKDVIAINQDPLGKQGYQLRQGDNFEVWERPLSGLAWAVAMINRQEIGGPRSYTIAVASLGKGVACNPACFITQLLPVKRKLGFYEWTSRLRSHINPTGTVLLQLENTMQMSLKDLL
From the text: Transgenic mice that exclusively express human mutant α-Gal A (R301Q) in an α-Gal A knock-out background (TgM/KO mice) were established and evaluated. This Example serves as a biochemical model to study and evaluate pharmacological chaperone therapy for Fabry disease, which is specific for those missense mutations that cause misfolding of α-Gal A.
Mice. Fabry R301Q Tg/KO mice were a gift from Dr. Robert Desnick. Male C57BL/6 mice were purchased from Taconic Farms, Germantown, N.Y. and housed in wire cages at 4 mice per cage. All studies were conducted at 8 weeks of age and conducted under strict adherence to IACUC guidelines.
Drug Administration. […] After dosing, indicated tissues were harvested and treated as described below.
Enzyme activity assay. After dosing, indicated tissues were harvested and frozen. Tissue lysates were prepared by homogenizing about 50 mg tissue in assay buffer. 2.5 μL lysate was combined with 17.5 μL of the assay buffer and 50 μL of the respective substrate solution (same as detailed in sections above). Reaction mixtures were then incubated at 37° C. for 1 hr. Afterward, 70 μL stop solution (0.4 M glycine, pH 10.8) was added, and fluorescence was read on a Victor plate reader at 355 nm excitation and 460 nm emission. Enzyme activity in the lysates was background subtracted, and normalized for protein concentration using the MicroBCA Protein Assay Kit (Pierce). A 4-MU standard curve was run (same as detailed in sections above) for conversion of fluorescence data to absolute enzyme activity expressed as nmoles/mg protein/hr or further normalized to % of untreated activity.

GL-3 = GL-3 analysis from mouse tissues (LC-MS/MS); assay type: in vivo; conditions: male R301Q Tg/KO mice, 30 mg/kg daily per os, 4 weeks
Protocol: Drug Administration. […] For the GL-3 assay, two groups of 6-7 male […] After dosing, indicated tissues were harvested and treated as described below. GL-3 analysis from mouse tissues. Tissue samples were washed free of blood, weighed and homogenized with a solvent system in a FastPrep® system. Homogenate was then extracted using Solid Phase Extraction on a C18 cartridge. The eluent was evaporated and reconstituted prior to injection onto a LC/MS system. Nine GL3 isoforms were measured using positive ESI-MS/MS. LC separation was achieved on a Zorbax C18 column.

[2] = including peripheral neuropathy and severe gastrointestinal effects; even at 150 mg/day; cited from earlier work
[3] = male R301Q Tg/KO mice, 30 mg/kg daily oral gavage, vs. untreated

| SMILES | increase in mutant GLA activity, heart [1, 3] | increase in mutant GLA activity, kidney [1, 3] | increase in mutant GLA activity, liver [1, 3] | increase in mutant GLA activity, skin [1, 3] | increase in mutant GLA activity, spleen [1, 3] | increase in mutant GLA activity, all treated tissues ([1]; male and female R301Q Tg/KO mice, 30 mg/kg/day in drinking water) | GL-3 levels, kidney tissue (GL-3) | reduction of GL-3 levels, heart tissue (GL-3) | reduction of GL-3 levels, skin tissue (GL-3) | adverse events [2] |
| --- | --- | --- | --- | --- | --- | --- | --- | --- | --- | --- |
| OCC1NCC(O)C(O)C1O (stereo not shown) [DGJ HCl, migalastat hydrochloride] | 11±0.1 -fold | 5.5±0.3 -fold | 3±0.02 -fold | 6.2±0.7 -fold | 5±0.1 -fold | comparable increases | trend towards reduction, but did not reach statistical significance | 1.6 -fold | 2.2 -fold | – |
| CCCCN1C[C@H](O)[C@@H](O)[C@H](O)[C@H]1CO [NB-DNJ] | – | – | – | – | – | – | – | – | – | numerous adverse events |
